Source: patent US7943629B2, “Sulphimides as protein kinase inhibitors” (Bayer Schering Pharma AG, priority 2006, dated 2011)

Key:
KDR (VEGFR2) = target: T1, KDR (VEGFR2) (Homo sapiens, UniProt P35968); test: KDR kinase assay; format: biochemical; conditions: 10 μM ATP, 22° C., 45 min, HTRF
T1 construct: made in house; host or cells: E. coli
Method: Recombinant KDR protein was expressed in E. coli and then purified. The kinase substrate used was the biotinylated peptide having the amino acid sequence biotin-DFGLARDMYDKEYYSVG, which was purchased from Biosynthan. KDR [test volume 5 μl] was incubated in the presence of various concentrations of test substances (0 μM, and 10 measurement points within the range 0.001-20 μM in duplicate) in assay buffer [50 mM HEPES pH 7.0, 25.0 mM MgCl2, […], 0.1 mM Na ortho-vanadate, 1.0 mM dithiothreitol, 0.001% NP40, 10 μM ATP, 0.03 μM substrate peptide […], 1.0% dimethyl sulphoxide] at 22° C. for 45 min. The reaction was stopped by adding 5 μl of an EDTA/detection solution [50 mM HEPES pH 7.5, 125 mM EDTA, 0.2% BSA, 0.1 μM streptavidin-XLent (from CisBio), 2 nM PT66-Eu (from PerkinElmer)]. The fluorescence emission at 620 nm and 665 nm after excitation with light of the wavelength 350 nm was measured in a Rubystar HTRF instrument from BMG Labsystems.
The measured data (ratio of emission 665 divided by emission 620 multiplied by 10 000) were normalized to 0% inhibition (enzyme reaction without inhibitor) and 100% inhibition (all assay components apart from enzyme). The IC50 values were determined by means of a 4-parameter fit using the company's own software.

MCF7 breast tumour cells = test: MCF7 proliferation assay; format: cell-based, human; conditions: for IC50: Homo sapiens, MCF7, 96 h, 4 days incubation, crystal violet staining
Method: Cultivated human MCF7 breast tumour cells (ATCC HTB-22) were plated out in a density of 5000 cells/measurement point in 200 μl of growth medium (RPMI1640, 10% foetal calf serum, 2 mU/mL insulin, 0.1 nM oestradiol) in a 96-well multititre plate. After 24 hours, the cells from a plate (zero plate) were stained with crystal violet (see below), while the medium in the other plates was replaced by fresh culture medium (200 μl) to which the test substances had been added in various concentrations (0 μM, and in the range 0.1-30 μM; the final concentration of the solvent dimethyl sulphoxide was 0.5%). The cells were incubated in the presence of the test substances for 4 days. The cell proliferation was determined by staining the cells with crystal violet: the cells were fixed by adding 20 μl/measurement point of an 11% strength glutaraldehyde solution at room temperature for 15 min. After the fixed cells had been washed three times with water, the plates were dried at room temperature. The cells were stained by adding 100 μl/measurement point of a 0.1% strength crystal violet solution (pH adjusted to pH 3 by adding acetic acid). After the stained cells had been washed three times with water, the plates were dried at room temperature. The dye was dissolved by adding 100 μl/measurement point of a 10% strength acetic acid solution, and the extinction was determined by photometry at a wavelength of 595 nm. The percentage change in cell growth was calculated by normalizing the measurements to the extinctions of the zero point plate (=0%) and the extinction of the untreated (0 μM) cells (=100%). The IC50 values were determined by means of a 4-parameter fit using the company's own software.

Aurora-C = target: T2, Aurora-C (Homo sapiens, UniProt Q9UQB9); test: Aurora-C kinase assay; format: biochemical; conditions: for IC50: 3 μM ATP, 22° C., 90 min
T2 construct: made in house; host or cells: transiently transfected HEK293 cells
T2 sequence (Q9UQB9 1-309): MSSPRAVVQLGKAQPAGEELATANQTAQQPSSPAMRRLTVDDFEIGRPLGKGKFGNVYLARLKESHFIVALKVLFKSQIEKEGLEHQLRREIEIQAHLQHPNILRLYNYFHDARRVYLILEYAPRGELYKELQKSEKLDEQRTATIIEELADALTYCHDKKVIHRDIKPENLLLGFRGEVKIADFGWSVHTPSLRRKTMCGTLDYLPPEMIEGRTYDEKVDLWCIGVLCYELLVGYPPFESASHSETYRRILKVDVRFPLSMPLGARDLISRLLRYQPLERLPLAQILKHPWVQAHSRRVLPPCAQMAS
Method: Recombinant Aurora-C protein was expressed in transiently transfected HEK293 cells and then purified. The kinase substrate used was the biotinylated peptide having the amino acid sequence biotin-FMRLRRLSTKYRT, which was purchased from Jerini AG in Berlin.
Aurora-C [5 nM in the test mixture, test volume 5 μl] was incubated in the presence of various concentrations of test substances (0 μM and 10 measurement points within the range 0.001-20 μM in duplicate) in assay buffer [25 mM HEPES pH 7.4, 0.5 mM MnCl2, 0.1 mM Na ortho-vanadate, 2.0 mM dithiothreitol, 0.05% bovine serum albumin (BSA), 0.01% Triton X-100, 3 μM adenosine trisphosphate (ATP), 0.67 nCi/μl gamma-^33P-ATP, 2.0 μM substrate peptide biotin-FMRLRRLSTKYRT, 1.0% dimethyl sulphoxide] at 22° C. for 90 min. The reaction was stopped by adding 12.5 μl of an EDTA/detection solution [16 mM EDTA, 40 mM ATP, 0.08% Triton X-100, 4 mg/ml PVT streptavidin SPA beads (from Amersham)]. After incubation for 10 minutes, the SPA beads were pelleted by centrifugation at 1000×G for 10 minutes. Measurement took place in a PerkinElmer Topcount scintillation counter. The measured data were normalized to 0% inhibition (enzyme reaction without inhibitor) and 100% inhibition (enzyme reaction in the presence of 0.1 μM staurosporine (from Sigma)). The IC50 values were determined by means of a 4-parameter fit using the company's own software.

CDK1/CycB = target: T3, CDK1/CycB (Homo sapiens, UniProt P06493); test: CDK1/CycB kinase assay; format: biochemical; conditions: 0.5 μM ATP, histone IIIS, 22° C., 10 min
T3 construct: GST; purchased ProQinase GmbH, Freiburg; host or cells: baculovirus-infected insect cells (Sf9)
Method: (§1) Recombinant CDK1- and CycB-GST fusion proteins, purified from baculovirus-infected insect cells (Sf9), were purchased from ProQinase GmbH, Freiburg. The histone IIIS used as kinase substrate can be purchased from Sigma. CDK1/CycB (200 ng/measurement point) was incubated in the presence of various concentrations of test substances (0 μM, and within the range 0.01-100 μM) in assay buffer [50 mM Tris/HCl pH 8.0, 10 mM MgCl2, 0.1 mM Na ortho-vanadate, 1.0 mM dithiothreitol, 0.5 μM ATP, 10 μg/measurement point histone IIIS, 0.2 μCi/measurement point ^33P-gamma-ATP, 0.05% NP40, 1.25% dimethyl sulphoxide] at 22° C. for 10 min. The reaction was stopped by adding EDTA solution (250 mM, pH 8.0, 15 μl/measurement point).
15 μl of each reaction mixture were loaded onto P30 filter strips (from Wallac), and non-incorporated ^33P-ATP was removed by washing the filter strips three times in 0.5% strength phosphoric acid for 10 min each time. After the filter strips had been dried at 70° C. for 1 hour, the filter strips were covered with scintillator strips (MeltiLex™ A, from Wallac) and baked at 90° C. for 1 hour. The amount of incorporated ^33P (substrate phosphorylation) was determined by scintillation measurement in a gamma radiation counter (Wallac).

CDK2/CycE = target: T4, CDK2/CycE (Homo sapiens, UniProt P24941); test: CDK2/CycE kinase assay; format: biochemical; conditions: for IC50: 0.5 μM ATP, histone IIIS, 22° C., 10 min; for inhibition of CDK2 kinase (in words): summary of Tab. 1
T4 construct: GST; purchased ProQinase GmbH, Freiburg; host or cells: baculovirus-infected insect cells (Sf9)
Method: Recombinant CDK2- and CycE-GST fusion proteins, purified from baculovirus-infected insect cells (Sf9), were purchased from ProQinase GmbH, Freiburg. The histone IIIS used as kinase substrate was purchased from Sigma.
as §1, with “CDK2/CycE (50” for “Recombinant CDK1- and CycB-GST fusion proteins, purified from baculovirus-infected insect cells (Sf9), were purchased from ProQinase GmbH, Freiburg. The histone IIIS used as kinase substrate can be purchased from Sigma. CDK1/CycB (200”
15 μl of each reaction mixture were loaded onto P30 filter strips (from Wallac), and non-incorporated ^33P-ATP was removed by washing the filter strips three times in 0.5% strength phosphoric acid for 10 min each time.
After the filter strips had been dried at 70° C. for 1 hour, the filter strips were covered with scintillator strips (MeltiLex™ A, from Wallac) and baked at 90° C. for 1 hour. The amount of incorporated ^33P (substrate phosphorylation) was determined by scintillation measurement in a gamma radiation counter (Wallac).

T3 sequence (P06493 whole entry): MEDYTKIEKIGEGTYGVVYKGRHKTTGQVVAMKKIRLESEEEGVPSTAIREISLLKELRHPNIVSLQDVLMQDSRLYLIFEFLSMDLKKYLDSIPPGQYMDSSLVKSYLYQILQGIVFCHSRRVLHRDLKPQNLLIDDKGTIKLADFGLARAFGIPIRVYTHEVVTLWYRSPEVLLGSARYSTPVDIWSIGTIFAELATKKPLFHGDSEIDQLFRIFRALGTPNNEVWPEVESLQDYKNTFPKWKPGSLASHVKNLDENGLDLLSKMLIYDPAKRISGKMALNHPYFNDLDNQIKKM
T3 sequence (P14635 whole entry partner): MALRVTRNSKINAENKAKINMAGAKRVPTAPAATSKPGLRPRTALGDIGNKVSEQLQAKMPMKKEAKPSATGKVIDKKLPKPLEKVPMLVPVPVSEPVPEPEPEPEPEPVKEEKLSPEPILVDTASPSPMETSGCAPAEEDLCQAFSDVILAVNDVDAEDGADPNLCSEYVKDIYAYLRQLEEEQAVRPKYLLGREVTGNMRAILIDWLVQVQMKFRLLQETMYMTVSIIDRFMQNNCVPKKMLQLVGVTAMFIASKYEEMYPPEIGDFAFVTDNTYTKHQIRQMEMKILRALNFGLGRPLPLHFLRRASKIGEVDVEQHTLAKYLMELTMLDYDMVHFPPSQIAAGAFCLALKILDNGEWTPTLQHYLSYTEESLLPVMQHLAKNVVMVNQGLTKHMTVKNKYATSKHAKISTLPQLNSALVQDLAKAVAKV
T1 sequence (P35968 20-1356, species assumed): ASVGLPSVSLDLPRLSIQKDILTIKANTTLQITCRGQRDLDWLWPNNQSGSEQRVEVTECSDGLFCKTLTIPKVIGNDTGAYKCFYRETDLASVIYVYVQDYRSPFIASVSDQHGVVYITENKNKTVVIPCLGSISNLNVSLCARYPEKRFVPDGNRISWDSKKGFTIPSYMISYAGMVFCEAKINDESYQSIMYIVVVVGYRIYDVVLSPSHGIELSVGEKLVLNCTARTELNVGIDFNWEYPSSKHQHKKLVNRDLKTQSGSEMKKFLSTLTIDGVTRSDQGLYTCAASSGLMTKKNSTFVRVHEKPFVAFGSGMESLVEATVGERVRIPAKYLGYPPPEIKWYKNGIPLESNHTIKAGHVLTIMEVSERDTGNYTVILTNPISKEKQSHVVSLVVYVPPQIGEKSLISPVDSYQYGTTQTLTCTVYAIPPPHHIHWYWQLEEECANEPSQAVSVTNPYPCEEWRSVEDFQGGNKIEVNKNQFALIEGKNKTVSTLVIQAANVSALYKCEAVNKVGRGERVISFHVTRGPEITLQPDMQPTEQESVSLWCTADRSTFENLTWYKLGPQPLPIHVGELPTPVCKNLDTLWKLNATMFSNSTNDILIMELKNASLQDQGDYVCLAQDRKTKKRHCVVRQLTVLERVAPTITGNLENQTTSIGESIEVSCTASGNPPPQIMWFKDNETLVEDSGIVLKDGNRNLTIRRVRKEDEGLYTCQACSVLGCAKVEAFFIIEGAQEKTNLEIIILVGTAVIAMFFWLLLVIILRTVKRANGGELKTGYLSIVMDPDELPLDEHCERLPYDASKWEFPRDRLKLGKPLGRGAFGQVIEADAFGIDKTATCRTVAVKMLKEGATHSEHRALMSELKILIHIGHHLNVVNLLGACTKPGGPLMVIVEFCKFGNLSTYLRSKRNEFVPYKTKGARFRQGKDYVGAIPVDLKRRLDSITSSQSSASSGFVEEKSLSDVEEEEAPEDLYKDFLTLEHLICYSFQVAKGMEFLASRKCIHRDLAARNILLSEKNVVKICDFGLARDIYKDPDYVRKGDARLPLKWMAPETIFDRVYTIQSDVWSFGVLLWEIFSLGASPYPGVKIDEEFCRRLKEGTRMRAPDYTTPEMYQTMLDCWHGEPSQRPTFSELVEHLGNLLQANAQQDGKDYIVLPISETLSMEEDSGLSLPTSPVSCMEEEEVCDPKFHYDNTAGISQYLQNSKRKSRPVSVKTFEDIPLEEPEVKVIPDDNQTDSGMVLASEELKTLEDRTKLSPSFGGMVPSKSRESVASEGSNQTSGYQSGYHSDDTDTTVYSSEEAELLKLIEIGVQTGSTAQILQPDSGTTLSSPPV

| Compound | IC50 (KDR (VEGFR2)) | IC50 (MCF7 breast tumour cells) | IC50 (Aurora-C) | IC50 (CDK1/CycB) | IC50 (CDK2/CycE) | inhibition of CDK2 kinase (in words) (CDK2/CycE) | inhibition of Aurora C kinase (in words) (Aurora-C; summary of Tab. 1) | antiproliferative activity, MCF7 (in words) (MCF7 breast tumour cells; summary of Tab. 2) |
| --- | --- | --- | --- | --- | --- | --- | --- | --- |
| COc1ccc(S(=O)(=O)N=S(C)c2ccc(Nc3ncc(Br)c(N[C@H](C)C(C)(C)O)n3)cc2)cc1 (mixture of isomers) [Example 12, (RS)—S-{4-[(5-Bromo-4-{[(R)-2-hydroxy-1,2-dimethylpropyl]amino}pyrimidin-2-yl)amino]phenyl}-N-[(4-methoxyphenyl)sulphonyl]-S-methylsulphimide] | 0.038 µM | 0.2 µM | 0.48 µM | 0.16 µM | 0.039 µM | – | – | – |
| CC(=O)Nc1nnc(S(=O)(=O)N=S(C)c2ccc(Nc3ncc(Br)c(N[C@H](C)C(C)(C)O)n3)cc2)s1 (mixture of isomers) [Example 19, (RS)—N-{[5-(Acetylamino)-1,3,4-thiadiazol-2-yl]sulphonyl}-S-{4-[(5-bromo-4-{[(R)-2-hydroxy-1,2-dimethylpropyl]amino}pyrimidin-2-yl)amino]phenyl}-S-methyl-sulphimide] | 0.32 µM | 1.8 µM | 1.1 µM | 0.098 µM | 0.025 µM | – | – | – |
| Cc1ccc(S(=O)(=O)N=S(C)c2ccc(Nc3ncc(Br)c(N[C@H](C)C(C)(C)O)n3)cc2)cc1 (mixture of isomers) [Example 9, (RS)—S-{4-[(5-Bromo-4-{[(R)-2-hydroxy-1,2-dimethylpropyl]amino}pyrimidin-2-yl)amino]phenyl}-S-methyl-N-(tolylsulphonyl)sulphimide] | 0.036 µM | < 0.1 µM | 0.36 µM | 0.15 µM | 0.028 µM | shows inhibition | – | excellent antiproliferative activity |
| Cc1ccc(S(=O)(=O)N=S(C)c2ccc(Nc3ncc(Br)c(NC(C)C)n3)cc2)cc1 (racemic) [Example 1, (RS)—S-(4-{[5-Bromo-4-(isopropylamino)pyrimidin-2-yl]amino}phenyl)-S-methyl-N-(tolylsulphonyl)sulphimide] | 0.037 µM | 2.2 µM | 0.24 µM | > 1 µM | 0.9 µM | – | – | – |
| C[C@@H](Nc1nc(Nc2ccc(S(C)=NS(=O)(=O)c3cnccc3Cl)cc2)ncc1Br)C(C)(C)O (mixture of isomers) [Example 11, (RS)—S-{4-[(5-Bromo-4-{[(R)-2-hydroxy-1,2-dimethylpropyl]amino}pyrimidin-2-yl)amino]phenyl}-N-[(4-chloro-3-pyridyl)sulphonyl]-S-methylsulphimide] | 0.044 µM | < 0.1 µM | 0.37 µM | 0.09 µM | 0.014 µM | active | active | – |

The next lines start with results.

| IC50 (KDR (VEGFR2)) | IC50 (MCF7 breast tumour cells) | IC50 (Aurora-C) | IC50 (CDK1/CycB) | IC50 (CDK2/CycE) | inhibition of CDK2 kinase (in words) (CDK2/CycE) | inhibition of Aurora C kinase (in words) (Aurora-C; summary of Tab. 1) | Compound | antiproliferative activity, MCF7 (in words) (MCF7 breast tumour cells; summary of Tab. 2) |
| --- | --- | --- | --- | --- | --- | --- | --- | --- |
| 0.049 µM | 0.31 µM | 0.39 µM | 0.036 µM | 0.012 µM | – | – | CCCS(=O)(=O)N=S(C)c1ccc(Nc2ncc(Br)c(N[C@H](C)C(C)(C)O)n2)cc1 (mixture of isomers) [Example 21, (RS)—S-{4-[(5-Bromo-4-{[(R)-2-hydroxy-1,2-dimethylpropyl]amino}pyrimidin-2-yl)amino]phenyl}-S-methyl-N-(propylsulphonyl)sulphimide] | – |
| 0.044 µM | 0.33 µM | 0.39 µM | 0.046 µM | 0.022 µM | – | – | C[C@@H](Nc1nc(Nc2ccc(S(C)=NS(=O)(=O)C(C)(C)C)cc2)ncc1Br)C(C)(C)O (mixture of isomers) [Example 22, (RS)—S-{4-[(5-Bromo-4-{[(R)-2-hydroxy-1,2-dimethylpropyl]amino}pyrimidin-2-yl)amino]phenyl}-N-(tert-butylsulphonyl)-S-methylsulphimide] | – |
| 0.035 µM | 0.35 µM | 0.25 µM | 0.031 µM | 0.01 µM | – | – | CCS(=O)(=O)N=S(C)c1ccc(Nc2ncc(Br)c(N[C@H](C)C(C)(C)O)n2)cc1 (mixture of isomers) [Example 20, (RS)—S-{4-[(5-Bromo-4-{[(R)-2-hydroxy-1,2-dimethylpropyl]amino}pyrimidin-2-yl)amino]phenyl}-N-(ethylsulphonyl)-S-methylsulphimide] | – |
